Patent US10472364B2 (Calithera Biosciences, Inc., priority 2016, dated 2019)

Biological target: endogenous, cell-bound CD73 on SK-MEL-28 cells (Homo sapiens (Human), UniProt P21589)
Test: Inhibition of endogenous, cell-bound CD73 enzyme activity in SK-MEL-28 cells (Malachite Green)
Format: cell-based
Settings: 100 μM AMP, 30 minutes at room temperature
Protocol: The day before the experiment, 5000 cells were plated per well in a 96-well plate. Cells were washed twice with […] reaction buffer (20 mM HEPES, pH 7.4, 125 mM NaCl, 1 mM KCl, 2 mM MgCl2, 10 mM glucose) to remove residual inorganic phosphate. After washing, assays contained serial dilutions of test compounds and 100 μM of AMP in a total volume of 200 μL reaction buffer, with a final DMSO concentration≤0.5%. After 30 minutes at room temperature, supernatant was removed from the cells. […] The concentration of inorganic phosphate was determined using a phosphate standard curve to determine IC50.

endogenous, cell-bound CD73 on SK-MEL-28 cells, sequence (P21589 27-574): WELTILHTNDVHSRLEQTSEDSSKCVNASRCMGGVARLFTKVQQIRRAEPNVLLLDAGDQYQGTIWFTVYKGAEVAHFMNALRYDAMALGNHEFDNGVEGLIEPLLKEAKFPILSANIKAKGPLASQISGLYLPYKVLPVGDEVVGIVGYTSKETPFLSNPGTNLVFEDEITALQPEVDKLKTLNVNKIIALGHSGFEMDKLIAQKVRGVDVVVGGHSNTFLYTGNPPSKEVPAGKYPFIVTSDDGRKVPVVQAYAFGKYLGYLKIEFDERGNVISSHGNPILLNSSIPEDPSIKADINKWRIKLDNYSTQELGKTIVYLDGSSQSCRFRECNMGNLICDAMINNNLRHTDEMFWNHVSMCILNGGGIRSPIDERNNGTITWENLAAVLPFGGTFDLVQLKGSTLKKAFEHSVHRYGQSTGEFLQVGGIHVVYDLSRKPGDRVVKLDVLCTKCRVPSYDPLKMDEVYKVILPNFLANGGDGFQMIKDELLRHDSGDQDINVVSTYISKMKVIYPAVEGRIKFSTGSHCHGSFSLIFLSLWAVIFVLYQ

Row | IC50 | SMILES
1 | 2190 nM | Nc1nc(Cl)nc2c1ncn2[C@@H]1O[C@H](COC(Cc2cccc(Oc3ccccc3)c2)(C(=O)O)C(=O)O)[C@@H](O)[C@@H]1F [compound 13, 2-(((2R,3R,4S,5R)-5-(6-amino-2-chloro-9H-purin-9-yl)-4-fluoro-3-hydroxytetrahydrofuran-2-yl)methoxy)-2-(3-phenoxybenzyl)malonic acid]
2 | 626 nM | Nc1nc(Cl)nc2c1ncn2[C@@H]1O[C@H](COC(Cc2ccc(S(N)(=O)=O)cc2)(C(=O)O)C(=O)O)[C@@H](O)[C@@H]1F [compound 86, 2-(((2R,3R,4S,5R)-5-(6-amino-2-chloro-9H-purin-9-yl)-4-fluoro-3-hydroxytetrahydrofuran-2-yl)methoxy)-2-(4-sulfamoylbenzyl)malonic acid]
3 | 2320 nM | Nc1nc(Cl)nc2c1ncn2[C@@H]1O[C@H](COC(Cc2ccc(C(F)(F)F)nc2)(C(=O)O)C(=O)O)[C@@H](O)[C@@H]1F [compound 32, 2-(((2R,3R,4S,5R)-5-(6-amino-2-chloro-9H-purin-9-yl)-4-fluoro-3-hydroxytetrahydrofuran-2-yl)methoxy)-2-((6-(trifluoromethyl)pyridin-3-yl)methyl)malonic acid]
4 | 588 nM | Nc1nc(Cl)nc2c1ncn2[C@@H]1O[C@H](COC(Cc2cn[nH]c2)(C(=O)O)C(=O)O)[C@@H](O)[C@@H]1F [compound 64, 2-((1H-pyrazol-4-yl)methyl)-2-(((2R,3R,4S,5R)-5-(6-amino-2-chloro-9H-purin-9-yl)-4-fluoro-3-hydroxytetrahydrofuran-2-yl)methoxy)malonic acid]
5 | 4120 nM | COC(=O)C(Cc1ccc(-c2ccccc2)cc1)(OC[C@H]1O[C@@H](n2cnc3c(N)nc(Cl)nc32)[C@@H](F)[C@@H]1O)C(=O)O (single isomer, unassigned) [compound 82]
6 | 3380 nM | N#CCC(OC[C@H]1O[C@@H](n2cnc3c(N)nc(Cl)nc32)[C@@H](F)[C@@H]1O)(C(=O)O)C(=O)O [compound 33, 2-(((2R,3R,4S,5R)-5-(6-amino-2-chloro-9H-purin-9-yl)-4-fluoro-3-hydroxytetrahydrofuran-2-yl)methoxy)-2-(cyanomethyl)malonic acid]
7 | 1580 nM | Nc1nc(Cl)nc2c1ncn2[C@@H]1O[C@H](COC(Cc2cccc(OC(F)(F)F)c2)(C(=O)O)C(=O)O)[C@@H](O)[C@@H]1F [compound 15, 2-(((2R,3R,4S,5R)-5-(6-amino-2-chloro-9H-purin-9-yl)-4-fluoro-3-hydroxytetrahydrofuran-2-yl)methoxy)-2-(3-(trifluoromethoxy)benzyl)malonic acid]
8 | 512 nM | Nc1nc(Cl)nc2c1ncn2[C@@H]1O[C@H](COC(Cc2ccc(C(F)(F)F)c(F)c2)(C(=O)O)C(=O)O)[C@@H](O)[C@@H]1F [compound 60, 2-(((2R,3R,4S,5R)-5-(6-amino-2-chloro-9H-purin-9-yl)-4-fluoro-3-hydroxytetrahydro-furan-2-yl)methoxy)-2-(3-fluoro-4-(trifluoromethyl)benzyl)malonic acid]
9 | 70 nM | Nc1nc(Cl)nc2c1ncn2[C@@H]1O[C@H](COC(Cc2ccc(OCC(F)(F)F)cc2)(C(=O)O)C(=O)O)[C@@H](O)[C@@H]1F [compound 89, 2-(((2R,3R,4S,5R)-5-(6-amino-2-chloro-9H-purin-9-yl)-4-fluoro-3-hydroxytetrahydrofuran-2-yl)methoxy)-2-(4-(2,2,2-trifluoroethoxy)benzyl)malonic acid]
10 | 1010 nM | Nc1nc(Cl)nc2c1ncn2[C@@H]1O[C@H](COC(Cc2cccc(F)c2)(C(=O)O)C(=O)O)[C@@H](O)[C@@H]1F [compound 44]
11 | 1480 nM | CCOC(=O)C(Cc1ccc(OC(F)(F)F)cc1)(OC[C@H]1O[C@@H](n2cnc3c(N)nc(Cl)nc32)[C@@H](F)[C@@H]1O)C(=O)O (single isomer, unassigned) [compound 38]
12 | 1250 nM | Nc1nc(Cl)nc2c1ncn2[C@@H]1O[C@H](COC(Cc2cccc(O)c2)(C(=O)O)C(=O)O)[C@@H](O)[C@@H]1F [compound 56, 2-(((2R,3R,4S,5R)-5-(6-amino-2-chloro-9H-purin-9-yl)-4-fluoro-3-hydroxytetrahydrofuran-2-yl)methoxy)-2-(3-hydroxybenzyl)malonic acid]
13 | 1810 nM | Nc1nc(Cl)nc2c1ncn2[C@@H]1O[C@H](COC(Cc2ccc3ccccc3c2)(C(=O)O)C(=O)O)[C@@H](O)[C@@H]1F [compound 17, 2-(((2R,3R,4S,5R)-5-(6-amino-2-chloro-9H-purin-9-yl)-4-fluoro-3-hydroxytetrahydrofuran-2-yl)methoxy)-2-(naphthalen-2-ylmethyl)malonic acid]
14 | 1310 nM | Nc1nc(Cl)nc2c1ncn2[C@@H]1O[C@H](COC(Cc2cnc(C(=O)O)s2)(C(=O)O)C(=O)O)[C@@H](O)[C@@H]1F [compound 67, 2-(((2R,3R,4S,5R)-5-(6-amino-2-chloro-9H-purin-9-yl)-4-fluoro-3-hydroxytetrahydro-furan-2-yl)methoxy)-2-((2-carboxythiazol-5-yl)methyl)malonic acid]
15 | 853 nM | Nc1nc(Cl)nc2c1ncn2[C@@H]1O[C@H](COC(Cc2ccc(C(=O)O)c(F)c2)(C(=O)O)C(=O)O)[C@@H](O)[C@@H]1F [compound 58, 2-(((2R,3R,4S,5R)-5-(6-amino-2-chloro-9H-purin-9-yl)-4-fluoro-3-hydroxytetrahydro-furan-2-yl)methoxy)-2-(4-carboxy-3-fluorobenzyl)malonic acid]
16 | 234 nM | Nc1nc(Cl)nc2c1ncn2[C@@H]1O[C@H](COC(Cc2ccc(CC(=O)O)cc2)(C(=O)O)C(=O)O)[C@@H](O)[C@@H]1F [compound 78, 2-(((2R,3R,4S,5R)-5-(6-amino-2-chloro-9H-purin-9-yl)-4-fluoro-3-hydroxytetrahydrofuran-2-yl)methoxy)-2-(4-(carboxymethyl)benzyl)malonic acid]
17 | 162 nM | Nc1nc(Cl)nc2c1ncn2[C@@H]1O[C@H](COC(Cc2ccc(-c3ccccc3)cc2)(C(=O)O)C(=O)O)[C@@H](O)[C@@H]1F [compound 79, 2-([1,1′-biphenyl]-4-ylmethyl)-2-(((2R,3R,4S,5R)-5-(6-amino-2-chloro-9H-purin-9-yl)-4-fluoro-3-hydroxytetrahydro-furan-2-yl)methoxy)malonic acid]
18 | 2380 nM | COc1cccc(CC(OC[C@H]2O[C@@H](n3cnc4c(N)nc(Cl)nc43)[C@@H](F)[C@@H]2O)(C(=O)O)C(=O)O)c1 [compound 49]
19 | 1020 nM | Nc1nc(Cl)nc2c1ncn2[C@@H]1O[C@H](COC(Cc2cccc(C(F)(F)F)c2)(C(=O)O)C(=O)O)[C@@H](O)[C@@H]1F [compound 16, 2-(((2R,3R,4S,5R)-5-(6-amino-2-chloro-9H-purin-9-yl)-4-fluoro-3-hydroxytetrahydrofuran-2-yl)methoxy)-2-(3-(trifluoromethyl)benzyl)malonic acid]
20 | 886 nM | Nc1cccc(CC(OC[C@H]2O[C@@H](n3cnc4c(N)nc(Cl)nc43)[C@@H](F)[C@@H]2O)(C(=O)O)C(=O)O)c1 [compound 27]
21 | 669 nM | Nc1nc(Cl)nc2c1ncn2[C@@H]1O[C@H](COC(Cc2ccc(F)cc2)(C(=O)O)C(=O)O)[C@@H](O)[C@@H]1F [compound 47]
22 | 990 nM | N#Cc1ccc(CC(OC[C@H]2O[C@@H](n3cnc4c(N)nc(Cl)nc43)[C@@H](F)[C@@H]2O)(C(=O)O)C(=O)O)cc1F [compound 75, 2-(((2R,3R,4S,5R)-5-(6-amino-2-chloro-9H-purin-9-yl)-4-fluoro-3-hydroxytetrahydrofuran-2-yl)methoxy)-2-(4-cyano-3-fluorobenzyl)malonic acid]
23 | 177 nM | Nc1nc(Cl)nc2c1ncn2[C@@H]1O[C@H](COC(Cc2ccc(Cl)cc2F)(C(=O)O)C(=O)O)[C@@H](O)[C@@H]1F [compound 80, 2-(((2R,3R,4S,5R)-5-(6-amino-2-chloro-9H-purin-9-yl)-4-fluoro-3-hydroxytetrahydrofuran-2-yl)methoxy)-2-(4-chloro-2-fluorobenzyl)malonic acid]
24 | 772 nM | Nc1nc(Cl)nc2c1ncn2[C@@H]1O[C@H](COC(Cc2ccc(Cl)nc2)(C(=O)O)C(=O)O)[C@@H](O)[C@@H]1F [compound 8, 2-(((2R,3R,4S,5R)-5-(6-amino-2-chloro-9H-purin-9-yl)-4-fluoro-3-hydroxytetrahydro-furan-2-yl)methoxy)-2-((6-chloropyridin-3-yl)methyl)malonic acid]
25 | 489 nM | Nc1nc(Cl)nc2c1ncn2[C@@H]1O[C@H](COC(Cc2ccccc2)(C(=O)O)C(=O)O)[C@@H](O)[C@@H]1F [compound 6, 2-(((2R,3R,4S,5R)-5-(6-amino-2-chloro-9H-purin-9-yl)-4-fluoro-3-hydroxytetrahydro-furan-2-yl)methoxy)-2-benzylmalonic acid]
26 | 6370 nM | Nc1nc(Cl)nc2c1ncn2[C@@H]1O[C@H](COC(Cc2nnn[nH]2)(C(=O)O)C(=O)O)[C@@H](O)[C@@H]1F [compound 50, 2-((1H-tetrazol-5-yl)methyl)-2-(((2R,3R,4S,5R)-5-(6-amino-2-chloro-9H-purin-9-yl)-4-fluoro-3-hydroxytetrahydrofuran-2-yl)methoxy)malonic acid]
27 | 887 nM | Nc1nc(Cl)nc2c1ncn2[C@@H]1O[C@H](COC(Cc2cccc(C(=O)O)c2)(C(=O)O)C(=O)O)[C@@H](O)[C@@H]1F [compound 42]
28 | 153 nM | N#Cc1ccc(CC(OC[C@H]2O[C@@H](n3cnc4c(N)nc(Cl)nc43)[C@@H](F)[C@@H]2O)(C(=O)O)C(=O)O)cc1 [compound 34]

Row | SMILES | IC50
29 | CC(C)(C)OC(=O)Nc1nc(N=[N+]=[N-])nc2c1ncn2[C@@H]1O[C@H](COC(Cc2cccc(C#N)c2)(C(=O)O)C(=O)O)[C@@H](O)[C@@H]1F [compound 41] | 4880 nM
30 | Nc1nc(Cl)nc2c1ncn2[C@@H]1O[C@H](COC(Cc2ccccc2)(C(=O)O)C(=O)O)[C@@H](O)[C@H]1N [compound 55, 2-(((2R,3S,4R,5R)-4-amino-5-(6-amino-2-chloro-9H-purin-9-yl)-3-hydroxytetrahydrofuran-2-yl)methoxy)-2-benzylmalonic acid] | > 50000 nM
